Assay: Acid dissociation constant (pKa) in aqueous sulfonic acid solution
Format: physicochemical
Conditions: aqueous sulfonic acid solution titrated at 25° C. with aqueous sodium hydroxide; from pH at 50% neutralization
Description: Examples of the method for measuring pKa include a method in which an aqueous aliphatic sulfonic acid solution is titrated with a titrant such as sodium hydroxide at 25° C., and pKa is calculated from the pH value at the time point when 50% neutralization was achieved.
(7) Acid Dissociation Constant (pKa) in Aqueous Sulfonic Acid Solution
The aqueous sulfonic acid solution used in each of Examples and Comparative Examples was subjected to titration at 25° C. using an aqueous sodium hydroxide solution, and the acid dissociation constant was calculated based on the pH value at the time point when 50% neutralization was achieved.

Row | pKa | Compound
1 | -1.3 | CCS(=O)(=O)O [ethanesulfonic acid]
2 | 0.3 | CCCCCCCCCCCCS(=O)(=O)O [n-dodecylsulfonic acid]
